Experimental data reported in patent US12312332B2 (Merck Sharp & Dohme LLC., priority 2019, dated 2025).

Target: T1, human OX2R (Homo sapiens, UniProt O43614)
T1 construct: expressed in transfected cells; host or cells: Chinese hamster ovary (CHO) cells, kept under G418 selection
T1 sequence (O43614 1-444): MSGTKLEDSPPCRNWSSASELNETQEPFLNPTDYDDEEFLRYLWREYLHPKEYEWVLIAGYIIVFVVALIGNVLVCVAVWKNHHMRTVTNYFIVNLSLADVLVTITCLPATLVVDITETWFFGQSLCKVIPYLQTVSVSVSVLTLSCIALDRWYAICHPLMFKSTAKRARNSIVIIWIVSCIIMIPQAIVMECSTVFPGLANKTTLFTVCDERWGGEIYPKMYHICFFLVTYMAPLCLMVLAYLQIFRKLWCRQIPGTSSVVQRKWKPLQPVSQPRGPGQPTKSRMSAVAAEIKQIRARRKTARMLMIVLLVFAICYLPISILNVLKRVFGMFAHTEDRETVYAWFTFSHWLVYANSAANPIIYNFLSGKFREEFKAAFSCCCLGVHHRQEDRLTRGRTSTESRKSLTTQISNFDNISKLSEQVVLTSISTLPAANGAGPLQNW
Experiment: IPOne (IP-One) orexin receptor agonist assay in CHO cells expressing human OX2R
Type: cell-based
Details: for EC50: CHO cells expressing human OX2R, IP-One detection, 2 hours incubation, four parameter logistic fit, read-out: OX2R Potency, EC50; for % max agonist effect (Emax): human OX2R, percentage of sample raw value/mean max effect (reference compound at 1 uM with 100% activity)

Row | Structure (SMILES) | EC50 | % max agonist effect (Emax)
1 | Cn1cc(F)c(=O)cc1N1CC[C@H](NS(C)(=O)=O)[C@@H]1CO[C@H]1CC[C@@H](c2ccccc2)CC1 [Example 88, N-((2R,3S)-1-(5-fluoro-1-methyl-4-oxo-1,4-dihydropyridin-2-yl)-2-((((CIS)-4-phenylcyclohexyl)oxy)methyl)pyrrolidin-3-yl)methanesulfonamide] | 29.3 nM | 101.1%
2 | CS(=O)(=O)N[C@H]1CCN(c2cc(=O)c(F)cn2CC(F)F)[C@H]1CO[C@H]1CC[C@@H](c2ccccc2)CC1 [Example 89, N-((2R,3S)-1-(1-(2,2-difluoroethyl)-5-fluoro-4-oxo-1,4-dihydropyridin-2-yl)-2-((((CIS)-4-phenylcyclohexyl)oxy)methyl)pyrrolidin-3-yl)methanesulfonamide] | 108 nM | 98.9%
3 | CS(=O)(=O)N[C@H]1CCN(c2cnc3oncc3c2)[C@H]1CO[C@H]1CC[C@@H](c2ccccc2)CC1 [Example 90, N-((2R,3S)-1-(isoxazolo[5,4-b]pyridin-5-yl)-2-((((CIS)-4-phenylcyclohexyl)oxy)methyl)pyrrolidin-3-yl)methanesulfonamide] | 930 nM | 87.6%
4 | CS(=O)(=O)N[C@H]1CCN(c2cnc3ccoc3c2)[C@H]1CO[C@H]1CC[C@@H](c2ccccc2)CC1 [Example 91, N-((2R,3S)-1-(furo[3,2-b]pyridin-6-yl)-2-((((CIS)-4-phenylcyclohexyl)oxy)methyl)pyrrolidin-3-yl)methanesulfonamide] | 803 nM | 99.0%
5 | CS(=O)(=O)N[C@H]1CCN(c2cnc3occc3c2)[C@H]1CO[C@H]1CC[C@@H](c2ccccc2)CC1 [Example 92, N-((2R,3S)-1-(furo[2,3-b]pyridin-5-yl)-2-((((CIS)-4-phenylcyclohexyl)oxy)methyl)pyrrolidin-3-yl)methanesulfonamide] | 326 nM | 100.2%
6 | COc1c(F)cnc(N2CC[C@H](NS(C)(=O)=O)[C@@H]2CO[C@H]2CC[C@@H](c3cccc(F)c3)CC2)c1F [Example 100, N-((2R,3S)-1-(3,5-difluoro-4-methoxypyridin-2-yl)-2-((((CIS)-4-(3-fluorophenyl)cyclohexyl)oxy)methyl)pyrrolidin-3-yl)methanesulfonamide] | 716 nM | 99.6%
7 | CS(=O)(=O)N[C@H]1CCN(c2ncc(CO)s2)[C@H]1CO[C@H]1CC[C@@H](c2ccccc2)CC1 [Example 102, N-((2R,3S)-1-(5-(hydroxymethyl)thiazol-2-yl)-2-((((CIS)-4-phenylcyclohexyl)oxy)methyl)pyrrolidin-3-yl)methanesulfonamide] | 4830 nM | 67.4%
8 | COC(=O)c1csc(N2CC[C@H](NS(C)(=O)=O)[C@@H]2CO[C@H]2CC[C@@H](c3ccccc3)CC2)n1 [Example 103, methyl 2-((2R,3S)-3-(methylsulfonamido)-2-((((CIS)-4-phenylcyclohexyl)oxy)methyl)pyrrolidin-1-yl)thiazole-4-carboxylate] | 1190 nM | 93%
9 | COC(=O)c1cnc(N2CC[C@H](NS(C)(=O)=O)[C@@H]2CO[C@H]2CC[C@@H](c3ccccc3)CC2)s1 [Example 104, methyl 2-((2R,3S)-3-(methylsulfonamido)-2-((((CIS)-4-phenylcyclohexyl)oxy)methyl)pyrrolidin-1-yl)thiazole-5-carboxylate] | 1190 nM | 100%
10 | Cc1sc(N2CC[C@H](NS(C)(=O)=O)[C@@H]2CO[C@H]2CC[C@@H](c3ccccc3)CC2)nc1O [Example 105, N-((2R,3S)-1-(4-hydroxy-5-methylthiazol-2-yl)-2-((((CIS)-4-phenylcyclohexyl)oxy)methyl)pyrrolidin-3-yl)methanesulfonamide] | 703 nM | 97.9%

These reach a lower EC50. Values come first.

Row | EC50 | % max agonist effect (Emax) | Structure (SMILES)
11 | 0.45 nM | 101.9% | COC[C@@H]1C[C@H](NS(=O)(=O)N(C)C)[C@H](CO[C@H]2CC[C@@H](c3cccc(F)c3)CC2)N1c1cc(O)c(F)cn1 [Example 93, N′-((2R,3S,5S)-1-(5-fluoro-4-hydroxypyridin-2-yl)-2-((((CIS)-4-(3-fluorophenyl)cyclohexyl)oxy)methyl)-5-(methoxymethyl)pyrrolidin-3-yl)-N,N-dimethyl-sulfamide]
12 | 0.3 nM | 99.6% | C[C@@H]1C[C@H](NS(=O)(=O)N(C)C)[C@H](CO[C@H]2CC[C@@H](c3cccc(F)c3)CC2)N1c1cc(O)c(F)cn1 [Example 94, N′-((2R,3S,5R)-1-(5-fluoro-4-hydroxypyridin-2-yl)-2-((((CIS)-4-(3-fluorophenyl)cyclohexyl)oxy)methyl)-5-methylpyrrolidin-3-yl)-N,N-dimethyl-sulfamide]
13 | 0.23 nM | 100.5% | C[C@@H]1C[C@H](NS(=O)(=O)N(C)C)[C@H](CO[C@H]2CC[C@@H](c3cccc(F)c3)CC2)N1c1cc(O)c(Cl)cn1 [Example 95, N′-((2R,3S,5R)-1-(5-chloro-4-hydroxypyridin-2-yl)-2-((((CIS)-4-(3-fluorophenyl)cyclohexyl)oxy)methyl)-5-methylpyrrolidin-3-yl)-N,N-dimethyl-sulfamide]
14 | 0.23 nM | 101.6% | CS(=O)(=O)N[C@H]1CCN(c2nccc(O)c2F)[C@H]1CO[C@H]1CC[C@@H](c2cccc(F)c2)CC1 [Example 96, N-((2R,3S)-1-(3-fluoro-4-hydroxypyridin-2-yl)-2-((((CIS)-4-(3-fluorophenyl)cyclohexyl)oxy)methyl)pyrrolidin-3-yl)methanesulfonamide]
15 | 0.6 nM | 100.9% | CS(=O)(=O)N[C@H]1CCN(c2cc(O)c(Cl)cn2)[C@H]1CO[C@H]1CC[C@@H](c2cccc(F)c2)CC1 [Example 97, N-((2R,3S)-1-(5-chloro-4-hydroxypyridin-2-yl)-2-((((CIS)-4-(3-fluorophenyl)cyclohexyl)oxy)methyl)pyrrolidin-3-yl)methanesulfonamide]
16 | 0.76 nM | 101.4% | CS(=O)(=O)N[C@H]1CCN(c2ncc(Cl)c(O)c2F)[C@H]1CO[C@H]1CC[C@@H](c2cccc(F)c2)CC1 [Example 98, N-((2R,3S)-1-(5-chloro-3-fluoro-4-hydroxypyridin-2-yl)-2-((((CIS)-4-(3-fluorophenyl)cyclohexyl)oxy)methyl)pyrrolidin-3-yl)methanesulfonamide]
17 | 0.27 nM | 101.2% | CS(=O)(=O)N[C@H]1CCN(c2cc(O)c(F)cn2)[C@H]1CO[C@H]1CC[C@@H](c2cccc(F)c2)CC1 [Example 99, N-((2R,3S)-1-(5-fluoro-4-hydroxypyridin-2-yl)-2-((((CIS)-4-(3-fluorophenyl)cyclohexyl)oxy)methyl)pyrrolidin-3-yl)methanesulfonamide]
18 | 2 nM | 100.5% | CS(=O)(=O)N[C@H]1CCN(c2ncc(F)c(O)c2F)[C@H]1CO[C@H]1CC[C@@H](c2ccccc2)CC1 [Example 101, N-((2R,3S)-1-(3,5-difluoro-4-hydroxypyridin-2-yl)-2-((((CIS)-4-phenylcyclohexyl)oxy)methyl)pyrrolidin-3-yl)methanesulfonamide]
